Laboratory results reported in patent US20240115681A1 (priority 2022, published 2024).
In the oligonucleotide strings, read from the 5' end, every base follows the letter of its sugar. An asterisk marks phosphorothioate; unmarked linkages are phosphodiester. Other units and linkages are bracketed, terminal groups are in braces. A string of capitals states the bases alone. d = 2'-deoxy (DNA)

Tests used:
[1] = system: NHRI-HN1 syngeneic orthotopic cancer animal model; design: species or system mice; details: mouse, in vivo
[2] = system: recombinant S protein; design: species or system SARS-CoV-2; details: in vivo
[3] = system: Mouse PBMCs; experiment: Cytokine expression in PBMCs by RT-qPCR; format: cell-based; details: CpG-2722 5 μg/ml, c-di-AM(PS)2 1 μg/ml, 4 h (FIG. 9)
[4] = system: influenza VLP (viral like particle); experiment: Antibody titers after intranasal influenza VLP/adjuvant vaccines in BALB/c mice; details: intranasal days 0, 15, 29, after the 3rd vaccination (day 42) (FIG. 15B)
[5] = system: Mouse BMDCs; experiment: Surface marker expression on BMDCs by flow cytometry; format: cell-based; details: CpG-2722 5 μg/ml, c-di-AM(PS)2 1 μg/ml, 24 h, CD11c+ cells (FIG. 6)
[6] = system: mouse embryonic fibroblasts (MEFs); experiment: Cytokine expression in MEFs by RT-qPCR; format: cell-based; details: CpG-2722 5 μg/ml, c-di-AM(PS)2 1 μg/ml, 4 h (FIG. 10)
[7] = system: splenocytes; experiment: Antigen-dependent T helper responses: cytokine ELISA of RBD-stimulated splenocytes from immunized mice; format: in vivo, mouse; details: splenocytes of intramuscularly immunized mice stimulated with RBD for 96 h (FIG. 5A-5C)
[8] = system: Mouse splenocytes; experiment: Cytokine expression in splenocytes by RT-qPCR; format: cell-based; details: 4 h (FIG. 8)
[9] = system: Mouse BMDCs; experiment: Cytokine expression in BMDCs by RT-qPCR; format: cell-based; details: 4 h (FIG. 7); for expression of cytokine genes (TNF-α, IL-1β, IL-6, IL-12A, IL-12B, IL-23A, IFN-β, IFN-γ): CpG-2722 5 μg/ml, c-di-AM(PS)2 1 μg/ml

“CpG-2722 (DNA dG*dT*dT*dG*dT*dC*dG*dT*dT*dT*dT*dT*dT*dG*dT*dC*dG*dT*dT)” was tested, and the tumor growth suppression [1] was “some level of tumor growth suppression”, the “anti-S protein IgG titer” value [2] was “became apparent” and the “serum anti-S IgA production” value [2] was “did not elicit the production of serum anti-S IgA”. For the same molecule, the “mRNA expression of TNF-α, IL-1β, IL-6, IL-12A, IL-12B, IL-23A, IFN-β, IFN-γ” value [3] was “higher induction by CpG-2722 treatment alone than that induced by the c-di-AM(PS)2 treatment alone”, the “anti-VLP IgG titer” value [4] was “does not further increase the IgG titer” and the “surface expression of CCR7” value [5] was “none of these two agonists activated expression of the CCR7”. The “surface expression of CD40” value [5] was “induced expression of CD40”, the “cytokine gene expression (TNF-α, IL-1β, IL-6, IL-12B, IL-23A, IFN-β)” value [6] was “not observed” and the “antigen-dependent Th responses (IFN-γ for Th1, IL-17A for Th17, IL-4, IL-5, IL-13 for Th2)” value [7] was “preferentially induced antigen-dependent Th1 and Th17 responses”. For the same molecule, the “expression of TNF-α, IL-1β, IL-6, IL-12A, IL-12B, IL-23A, IFN-β, IFN-γ” value ([8]; CpG-2722 5 μg/ml, c-di-AM(PS)2 1 μg/ml) was “more potent than c-di-AM(PS)2”, the “expression of IL-1β” value [9] was “strongly induced” and the “expression of IL-2” value [9] was “not induced by either of these two agonists alone”. For the same molecule, the “expression of cytokine genes (TNF-α, IL-1β, IL-6, IL-12A, IL-12B, IL-23A, IFN-β, IFN-γ)” value [9] was “induced the expressions of TNF-α, IL-1β, IL-6, IL-12A, IL-12B, IL-23A, IFN-β, and IFN-γ genes”.
For `Nc1ncnc2c1ncn2[C@@H]1O[C@@H]2COP(O)(=S)O[C@@H]3C(O)[C@@H](COP(O)(=S)O[C@H]2[C@H]1O)O[C@H]3n1cnc2c(N)ncnc21` (some centres unmarked) [2′3′-c-di-AM(PS)2], the “anti-S protein IgG titer” value [2] was “became apparent”, the “serum anti-S IgA production” value [2] was “did not elicit the production of serum anti-S IgA” and the “surface expression of CCR7” value [5] was “none of these two agonists activated expression of the CCR7”. For the same molecule, the “surface expression of CD80” value [5] was “induced the expression of CD80 and CD86”, the “surface expression of CD86” value [5] was “induced the expression of CD80 and CD86” and the “cytokine gene expression (TNF-α, IL-1β, IL-6, IL-12B, IL-23A, IFN-β)” value [6] was “induced the gene expression of TNF-α, IL-1β, IL-6, IL-12B, IL-23A, and IFN-β”. The “antigen-dependent Th responses (IFN-γ for Th1, IL-17A for Th17, IL-4, IL-5, IL-13 for Th2)” value [7] was “induced an antigen-dependent Th2 response”, the “expression of IFN-β, IL-4, IL-5, and IL-13” value [8] was “induced the expression of IFN-β, IL-4, IL-5, and IL-13 more potently” and the “expression of IL-12A and IL-12B” value [8] was “not induced”. The “expression of IFN-α” value [9] was “induced the expression of IFN-α”, the “expression of IL-2” value [9] was “not induced by either of these two agonists alone” and the “expression of cytokine genes (TNF-α, IL-1β, IL-6, IL-12A, IL-12B, IL-23A, IFN-β, IFN-γ)” value [9] was “induced the expressions of TNF-α, IL-1β, IL-6, IL-12A, IL-12B, IL-23A, IFN-β, and IFN-γ genes”.
With `Nc1ncnc2c1ncn2[C@@H]1O[C@@H]2COP(=O)(O)O[C@@H]3[C@H](O)[C@@H](COP(=O)(O)O[C@H]2[C@H]1O)O[C@H]3n1cnc2c(N)ncnc21` [2′3′-c-di-AMP] the tumor growth suppression [1] was “some level of tumor growth suppression”.
